Read-outs that look alike come from different tables or passages of the source.
What was measured:
[1] = tested on: nuclear extracts from neuroblastomas or fibroblasts; experiment: Gel shift assay, competition against 32P labelled E-D probe; format: binding; conditions: excess of unlabelled competitor
Excerpt: FIG. 7: Gel shift experiment. Autoradiogram of the mobility shift experiment. The probe used was a ^32P labelled double stranded E-D oligonucleotide. This oligonucleotide carries only the E-Box/Dyad element, whereas the oligonucleotide S-E carries the Sp1 binding site as well as the E-Box/Dyad element. The competitor oligonucleotides were used in 10- and 100-fold molar excess, except for S-E that was used only in 100-fold molar excess.
Oligonucleotides were labeled either with Y[^32P]ATP and T4 polynucleotide kinase, or with ∝[^32P]CTP and Klenow enzyme as in Current Protocols in Molecular Biology. Nuclear extracts were prepared from ˜10^7 cells as described (Bessis et al., 1993). For binding, […] of labeled oligonucleotide was mixed with 0.5 μg of protein extract in 10 mM Hepes pH 8, 10% glycerol], 0.1 mM EDTA, 0.1 M NaCl, 2 mM DTT, 0.1 mg/ml BSA, 4 mM MgCl2, 4 mM spermidine, 1 mM PMSF, 1 μg polydldC in 20 μl. The reaction was incubated for 10 minutes on ice. The DNA-protein complexes were then analyzed on a 7% polyacrylamide gel.
To further understand the role of the E-Box in the regulation of the promoter, we investigated the protein complexes able to interact with this sequence. Gel shift assays were performed using the 33 bp sequence (nt-135 to -103, oligonucleotide E-D) as a probe. […]

[2] = tested on: neurons of the anterior thalamus; format: cell-based, mouse
Procedure: (§1) METHODS, Coronal slices were obtained from the thalamus of 8-12 day old mice using a Dosaka slicer in ice cold ACSF medium (125 mM NaCl/26 mM NaHCO3/25 mM Glucose/1.25 mM NaH2PO4/2.5 mM KCl 2.5/2 mM CaCl2/1 mM MgCl2 pH 7.3). Slices were maintained in the same medium for 1-8 hours. Cells in slices were visualized through a Zeiss microscope. Whole cell recordings were obtained with 2-4 MOhm hard-glass pipettes containing 150 mM CsCl/10 mM EGTA/10 mM HEPES/4 mM di-sodium ATP/4 mM MgCl2 pH adjusted to 7.3 with KOH. Five to ten sec. pulses of drug were applied rapidly to the cell through a […] pipette above the slice, fed by gravity with a solution containing 150 mM NaCl/10 mM Hepes/2.5 mM KCl/2 mM CaCl2/1 mM MgCl2. Recordings were made in the presence of CNQX (5 μM) and of the GABAA antagonist SR-95531 (10 μM). Currents were recorded with an Axopatch ID (Axon Instrument) patch amplifier, digitized on a Compaq PC and further analyzed with the PClamp program (Axon Instrument).

[3] = tested on: neurons in the MHb; experiment: Patch clamp recording of nicotine evoked currents, medial habenula (MHb); format: cell-based, mouse; conditions: for Agonist potency rank order: wild type
Procedure: as §1

[4] = tested on: β2−/− mice and their wildtype siblings
Procedure: METHODS, Passive avoidance test was performed as described in the text, according to Nordberg and Bergh^20 and Faiman et al^20. Nicotine (bitartrate, Sigma) was freshly dissolved in PBS. IP injection of the same volume of either nicotine or vehicle immediately followed footshock during the training trial.
Retention of an inhibitory avoidance response was assessed using the passive avoidance test, which was also chosen for its pharmacological sensitivity to nicotine administration ^19,20. This test consisted of a training trial in which the mouse was placed in a well-lighted chamber of a shuttle box, and the latency to enter the adjacent dark chamber was measured. Upon entry to the dark chamber, a mild, inescapable foot shock was delivered, and vehicle or nicotine (10 μg/kg) was injected into the mouse. Twenty-four (24) hours later, retention was assessed by measuring the latency to enter the dark chamber.

[5] = biological target: high affinity nAChR (Mus musculus, UniProt O70174+Q9ERK7); conditions: 3H-nicotine 4 nM, all brain areas of β2+/− mice
high affinity nAChR (Mus musculus, UniProt O70174+Q9ERK7), sequence (Q9ERK7 26-501): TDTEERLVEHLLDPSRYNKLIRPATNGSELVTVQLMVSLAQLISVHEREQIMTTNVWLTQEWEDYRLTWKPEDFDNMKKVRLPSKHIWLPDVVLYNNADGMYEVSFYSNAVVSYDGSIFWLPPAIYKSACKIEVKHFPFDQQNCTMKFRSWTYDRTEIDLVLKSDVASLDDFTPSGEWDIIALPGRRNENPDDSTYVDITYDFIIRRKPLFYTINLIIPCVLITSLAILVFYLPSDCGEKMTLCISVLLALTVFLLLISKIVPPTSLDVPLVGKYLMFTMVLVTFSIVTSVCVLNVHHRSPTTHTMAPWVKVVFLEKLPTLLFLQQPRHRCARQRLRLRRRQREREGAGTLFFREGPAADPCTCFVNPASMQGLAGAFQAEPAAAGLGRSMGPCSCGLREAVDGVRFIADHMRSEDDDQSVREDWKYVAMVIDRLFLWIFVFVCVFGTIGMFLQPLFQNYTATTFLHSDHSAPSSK
high affinity nAChR (Mus musculus, UniProt O70174+Q9ERK7), sequence (O70174 31-629): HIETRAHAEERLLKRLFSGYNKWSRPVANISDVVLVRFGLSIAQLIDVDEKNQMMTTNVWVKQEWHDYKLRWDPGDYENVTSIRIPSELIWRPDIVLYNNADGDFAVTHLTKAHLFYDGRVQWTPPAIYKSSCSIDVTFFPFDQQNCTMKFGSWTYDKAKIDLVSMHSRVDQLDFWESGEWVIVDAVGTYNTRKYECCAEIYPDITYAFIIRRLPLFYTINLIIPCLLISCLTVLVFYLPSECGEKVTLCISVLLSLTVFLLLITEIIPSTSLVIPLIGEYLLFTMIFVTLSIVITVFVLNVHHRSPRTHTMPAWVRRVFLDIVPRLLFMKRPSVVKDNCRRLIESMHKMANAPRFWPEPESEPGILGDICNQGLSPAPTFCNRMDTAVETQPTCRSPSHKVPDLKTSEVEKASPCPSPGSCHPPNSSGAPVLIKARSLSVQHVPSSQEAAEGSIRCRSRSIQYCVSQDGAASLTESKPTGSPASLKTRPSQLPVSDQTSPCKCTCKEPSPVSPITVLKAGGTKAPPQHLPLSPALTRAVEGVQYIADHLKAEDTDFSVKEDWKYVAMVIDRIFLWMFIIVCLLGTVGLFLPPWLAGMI
Procedure: (§2) Following incubation, sections were rinsed 2×2 min. in ice cold PBS and briefly rinsed in ice cold water. Slides were exposed for 60 days to Hyperfilm ^3H.

[6] = tested on: high affinity nAChR; conditions: 3H-nicotine 4 nM, brain sections of β2−/− mice
Procedure: as §2

[7] = biological target: high affinity sites; conditions: read-out: KD of high affinity sites; equilibrium binding experiments; cited from earlier work

For “5′-TCCTCCCCTAGTAGTTCCACTTGTGTTCCCTAG [E-D]”, the “Competition for complexes formed with labelled E-D probe” value [1] was “fully displaced”.

In the case of CN1CCCC1c1cccnc1 (stereo not shown) [nicotine], the Average inward current ([2]; 10 μM nicotine, wild type animals) is reported as 155+/−73 pA, the “Dose required for a reproducible response” value ([2]; anterior thalamic neurons) is reported as 1 µM and the “Agonist order of the response” value ([2]; wild type, anterior thalamus) is reported as “nicotine>DMPP>cytisine”. The “Response of anterior thalamic neurons to nicotine” value ([2]; β2−/− mice, 100% of neurons tested) was “completely abolished”, the “Response of cells in the MHb to nicotine” value ([3]; mutant mice) was “maintained” and the Average inward current ([3]; wild type mice, MHb) was 505+/−132 pA. The “Agonist potency rank order” value ([3]; MHb) was “cytisine=nicotine>DMPP”, the “Upward shift of retention latency curve” value ([4]; nicotine 10 μg/kg IP post-training, retention after 24 hours, wild type mice, p<0.01) was “approximately 80 sec” and the “Effect of nicotine administration on retention” value ([4]; nicotine 10 μg/kg, mutant (β2−/−) mice) was “completely ineffective”. The “Reduction of nicotine binding in situ” value [5] was “approximately 50%”, the “Nicotine binding in situ” value [6] was “completely abolished” and the Kd [7] was ~10 nM.

With O=c1cccc2n1C[C@@H]1CNC[C@H]2C1 [cytisine] the “Agonist order of the response” value [2] was “nicotine>DMPP>cytisine” and the “Agonist potency rank order” value ([3]; MHb) was “cytisine=nicotine>DMPP”.

With “5′-CCTCCCCTAGTAGTTCCTCAGGTGTTCCCTAGA [Mut.E]” the “Competition for complexes formed with labelled E-D probe” value [1] was “no competition”.

For C[N+]1(C)CCN(c2ccccc2)CC1 [DMPP], the “Agonist order of the response” value ([2]; wild type, anterior thalamus) was “nicotine>DMPP>cytisine” and the “Agonist potency rank order” value ([3]; MHb) was “cytisine=nicotine>DMPP”.

For CO[C@H]1CC=C2CCN3CCC4=C(CC(=O)OC4)[C@]23C1 [dihydro-β-erythroidine], the “Effect on the nicotine evoked inward current” value ([2]; 1 μM antagonist, 10 μM nicotine, wild type) was “blocked”.

From patent US7294463B2, “Method of screening for compounds that modulate activity of a regulatory sequence of the β-2 subunit of a neuronal nicotinic acetylcholine receptor” (Institut Pasteur, priority 1994, dated 2007)
